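Cells were grown in 96-well plates and exposed to each compound for 48 hours at five concentrations; endpoints were interpolated linearly between bracketing concentrations, or set to the highest concentration if not reached. GI50 marks 50% less growth.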 The source made the active and inactive calls. Rule as the data show it: active = GI50 up to about 1.1 µM and inactive = higher.
Experiments:
Assay in all cases: growth of human tumour cells (NCI), 48 h
[1] = tested on: T47D
[2] = tested on: MDA-MB-231
[3] = tested on: MDA-MB-435
[4] = tested on: DU-145
[5] = tested on: PC-3
[6] = tested on: Hs-578T
[7] = tested on: LXFL 529
[8] = tested on: RXF 631
[9] = tested on: 786-0

Compound | GI50 [1] | GI50 [2] | GI50 [3] | GI50 [4] | GI50 [5] | GI50 [6] | GI50 [7] | GI50 [8] | GI50 [9]
CC1(C)C(=O)c2ccccc2OC1N1CCN(C2Oc3ccccc3C(=O)C2(C)C)CC1 (configuration not stated) | 83.4 µM (inactive) | 94.6 µM (inactive) | > 100 µM (inactive) | > 100 µM (inactive) | > 100 µM (inactive) | 61.1 µM (inactive) |  |  | 
COc1cc(C2c3cc4c(cc3OC3(O)COC(=O)C23)OCO4)cc(OC)c1OC (configuration not stated) |  |  |  |  |  |  | 39.8 µM (inactive) | 49.3 µM (inactive) | 
Cc1cc(Cl)ccc1NC1=NC(=O)C(CC(=O)Nc2cccc(Cl)c2)S1 (configuration not stated) |  |  |  |  |  |  | 39.9 µM (inactive) |  | 46.8 µM (inactive)
CCCn1cc2c(O)nc(SC)nc2n1 |  |  |  |  |  |  | > 100 µM (inactive) |  | 
O=C1C(Cl)=C(c2ccc([N+](=O)[O-])cc2)C(=O)c2c(O)cccc21 | 2.37 µM (inactive) | 1.03 µM (active) | 2.05 µM (inactive) | 6.04 µM (inactive) | 2.12 µM (inactive) | 1.19 µM (inactive) | 0.273 µM (active) |  | 3.15 µM (inactive)
COc1ccc(C2C(Cl)C(=O)N2NC(=O)c2ccccc2O)cc1 (configuration not stated) |  |  |  |  |  |  | > 100 µM (inactive) |  | 
CC1(C)CCC(C)(C)c2c1ccc(O)c2Cc1c(O)ccc2c1C(C)(C)CCC2(C)C | 1.87 µM (inactive) | 1.66 µM (inactive) | 1.87 µM (inactive) | 2.23 µM (inactive) | 2 µM (inactive) | 2.84 µM (inactive) |  |  | 1.92 µM (inactive)
C=CCN(N=O)C(=O)N(CCC)CCCCC(NC(C)=O)C(=O)NCc1ccccc1 (configuration not stated) |  |  |  |  |  |  | 62.5 µM (inactive) | > 100 µM (inactive) | > 100 µM (inactive)
COC(=O)c1c(O)ccc2c1c1c(n2Cc2cccc(C)c2)C(=O)c2ccccc2C1 | 0.348 µM (active) | 13.6 µM (inactive) | 11.4 µM (inactive) | 51.4 µM (inactive) | 9.1 µM (inactive) | 23.2 µM (inactive) |  |  | 
O=C1NCN(c2ccccc2)C12CCN(CCCSc1ccc(F)cc1)CC2 | 28.6 µM (inactive) | 5.52 µM (inactive) | 12.8 µM (inactive) | 11 µM (inactive) | 47.2 µM (inactive) | > 42.1 µM (inactive) |  |  | 24.3 µM (inactive)
C=CCOC1=C(OCC=C)C(C2COC(C)(C)O2)OC1=O (configuration not stated) | > 100 µM (inactive) | > 100 µM (inactive) | > 100 µM (inactive) | > 100 µM (inactive) | > 100 µM (inactive) | > 100 µM (inactive) |  |  | 67 µM (inactive)
CC(=O)NNc1nc(C)c(C(=O)NNC(=O)C(=O)Nc2cccc(C(C)=O)c2)s1 |  |  |  |  |  |  |  | 26.6 µM (inactive) | 
c1ccc(COC2(OCc3ccccc3)CC3OC2C2NN=NC32)cc1 (configuration not stated) |  |  |  |  |  |  | 15.3 µM (inactive) |  | 20 µM (inactive)
c1ccc(/N=C2\S/C(=N\C3CCCCC3)N(C3CCCCC3)\C2=N/c2ccccc2)cc1 | > 100 µM (inactive) | > 100 µM (inactive) | > 100 µM (inactive) | > 100 µM (inactive) | 67.1 µM (inactive) | > 100 µM (inactive) |  |  | 
Cn1ccnc1C(O)(c1nccn1C)c1nccn1C |  |  |  |  |  |  | > 100 µM (inactive) |  | 
COC(=O)C1CC=C(SC(=O)c2ccccc2)N1C(=O)c1ccccc1 (configuration not stated) | > 100 µM (inactive) | > 100 µM (inactive) | > 100 µM (inactive) | > 100 µM (inactive) | > 100 µM (inactive) | > 100 µM (inactive) |  |  | > 100 µM (inactive)
Clc1nc(Cl)nc(Nc2cccc3ccccc23)n1 | > 10 µM (inactive) | > 10 µM (inactive) | > 10 µM (inactive) | > 10 µM (inactive) | > 10 µM (inactive) | > 10 µM (inactive) |  |  | 
C=CS(=O)(=O)c1c2cc(OC)ccc2nc2ccc(OC)cc12 | 3.43 µM (inactive) | 15.5 µM (inactive) | 5.58 µM (inactive) | 3.53 µM (inactive) | 7.29 µM (inactive) | 2.97 µM (inactive) |  |  | 2.37 µM (inactive)
CCCCP1(=O)C=CC(Cl)=C(C)C1 (configuration not stated) |  |  |  |  |  |  | > 100 µM (inactive) |  | > 100 µM (inactive)

— ChEMBL document CHEMBL1201862, “PubChem BioAssay data set” (2004)
